Assays:
[1] = molecular target: mTOR (Homo sapiens, UniProt P42345); test: mTOR assay (phosphorylation of 4eBP1, [γ33P]-ATP filter plate); format: biochemical; conditions: 10 μM ATP, 1 hour at room temperature
Protocol: Truncated mTOR kinase and His-tagged 4eBP1 were produced in-house. [γ^33P]-ATP was purchased from Amersham (GE Healthcare). All chemicals, unless otherwise stated, were from Sigma-Aldrich.
Phosphorylation assays were initially performed in a final volume of 20 μL in 384-well polypropylene plate (Greiner). Compounds were typically tested over the range from 100 μM to 0.006 μM, in 8 step dilutions, in duplicate. 10 μL/well of 2× Enzyme-Substrate solution (1.5 μg/mL mTOR, 40 μg/mL 4eBP1 in 1× assay buffer: 10 mM Hepes pH 7.5, 50 mM NaCl and 10 mM MnCl2) were first added to the sample plate containing 1 μL/well of test compound in neat DMSO. The reaction was initiated by adding 10 μL/well of 20 μM ATP solution (final assay concentration 10 μM ATP and 0.4 μCi/well of [γ^33P]-ATP). After 1 hour incubation at room temperature, the reaction was terminated with 40 μL/well of 20 mM EDTA/1 mM ATP solution.
50 μL/well of the stopped reaction mix was then transferred to 384-well MultiScreenHTS-PH filter plate (Millipore) pre-added with 50 μL/well of 1% phosphoric acid. The plate was washed 4 times with 120 μL/well of 0.5% phosphoric acid via vacuum filtration. Finally, 10 μL/well of Optiphase™ SuperMix liquid scintillation cocktail (Perkin Elmer) was added. After minimum 1 hour of incubation, counting was performed in a Wallac MicroBeta TriLux scintillation counter using coincidence counting mode with crosstalk correction.

[2] = molecular target: T1, PI3K p110α/p85 (Homo sapiens, UniProt P42336); test: PI3K assay ([γ33P]ATP, PtdIns/PtdSer coated plates); format: biochemical; conditions: 2 μM ATP, 1 hour at RT; read-out: IC50 (PI3Kα)
T1 construct: made in house
T1 sequence (P42336 whole entry): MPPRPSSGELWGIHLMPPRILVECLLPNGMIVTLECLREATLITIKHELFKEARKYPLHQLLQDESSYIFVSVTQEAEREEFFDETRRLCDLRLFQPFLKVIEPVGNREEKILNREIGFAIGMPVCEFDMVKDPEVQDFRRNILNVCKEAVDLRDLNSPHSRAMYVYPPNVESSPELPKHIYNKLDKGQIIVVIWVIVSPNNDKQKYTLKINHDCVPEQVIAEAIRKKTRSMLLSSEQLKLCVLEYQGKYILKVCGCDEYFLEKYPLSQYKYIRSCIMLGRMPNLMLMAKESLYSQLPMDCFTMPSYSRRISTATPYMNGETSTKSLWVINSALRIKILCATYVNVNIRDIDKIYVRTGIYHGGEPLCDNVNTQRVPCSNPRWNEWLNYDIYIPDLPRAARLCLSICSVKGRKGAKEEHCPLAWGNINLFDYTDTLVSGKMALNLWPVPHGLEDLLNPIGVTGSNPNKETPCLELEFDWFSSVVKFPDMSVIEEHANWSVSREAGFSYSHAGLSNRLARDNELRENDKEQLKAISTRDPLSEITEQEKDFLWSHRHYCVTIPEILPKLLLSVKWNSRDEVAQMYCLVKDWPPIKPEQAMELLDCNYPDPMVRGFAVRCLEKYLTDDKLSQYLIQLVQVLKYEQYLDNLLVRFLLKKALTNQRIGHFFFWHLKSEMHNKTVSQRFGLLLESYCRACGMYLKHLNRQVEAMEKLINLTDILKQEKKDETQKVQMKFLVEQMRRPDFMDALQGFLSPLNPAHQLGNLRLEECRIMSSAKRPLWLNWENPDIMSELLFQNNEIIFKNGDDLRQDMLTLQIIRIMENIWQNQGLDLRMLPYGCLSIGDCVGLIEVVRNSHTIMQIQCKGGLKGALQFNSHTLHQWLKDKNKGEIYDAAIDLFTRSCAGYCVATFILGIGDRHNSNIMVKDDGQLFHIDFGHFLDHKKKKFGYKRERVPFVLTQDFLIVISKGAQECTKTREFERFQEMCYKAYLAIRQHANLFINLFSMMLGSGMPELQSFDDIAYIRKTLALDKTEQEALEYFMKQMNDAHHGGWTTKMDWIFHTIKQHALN
T1 sequence (P27986 whole entry partner): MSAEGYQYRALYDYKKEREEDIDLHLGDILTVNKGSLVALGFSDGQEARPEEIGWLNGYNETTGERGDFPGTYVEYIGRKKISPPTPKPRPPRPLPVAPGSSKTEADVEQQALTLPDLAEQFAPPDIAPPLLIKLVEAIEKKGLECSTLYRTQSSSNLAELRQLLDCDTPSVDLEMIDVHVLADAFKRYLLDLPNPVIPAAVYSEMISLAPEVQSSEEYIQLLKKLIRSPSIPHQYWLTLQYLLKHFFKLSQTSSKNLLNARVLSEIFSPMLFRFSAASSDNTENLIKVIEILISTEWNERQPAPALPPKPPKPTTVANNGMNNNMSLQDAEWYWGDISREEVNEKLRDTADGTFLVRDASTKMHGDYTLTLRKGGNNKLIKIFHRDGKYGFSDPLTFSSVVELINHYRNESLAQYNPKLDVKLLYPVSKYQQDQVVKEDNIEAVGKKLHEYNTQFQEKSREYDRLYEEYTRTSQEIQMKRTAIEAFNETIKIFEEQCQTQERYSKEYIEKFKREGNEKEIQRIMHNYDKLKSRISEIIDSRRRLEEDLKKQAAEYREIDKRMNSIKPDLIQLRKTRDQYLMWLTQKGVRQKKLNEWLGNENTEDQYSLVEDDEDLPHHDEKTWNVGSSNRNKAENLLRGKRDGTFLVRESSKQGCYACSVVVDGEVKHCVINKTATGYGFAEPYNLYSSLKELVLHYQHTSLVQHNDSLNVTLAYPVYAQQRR
Protocol: Recombinant PI3K p110α/p85 was prepared in-house. Phosphatidylinositol (PtdIns), phosphotidylserine (PtdSer) and all other unspecified chemicals were purchased from Sigma-Aldrich. [γ^33P]ATP and Optiphase scintillant were obtained from Perkin Elmer.
Assays were performed in a final assay volume of 25 μL in 384-well Maxisorp plates (Nunc). Compounds were tested at 8 concentrations in 3-fold serial dilution, generally starting from 10 μM. Maxisorp plates were coated with 20 μL/well of a 1:1 mixture of PtdIns and PtdSer [0.1 mg/mL each dissolved in chloroform:ethanol (3:7)] and left overnight in a fume hood at room temperature (RT) to dry.
The enzyme reaction was created by pipetting 5 μL/well of compound (in 2.5% DMSO), 10 μL/well of enzyme (0.5 μg/mL p110α+1 μg/mL p85), and 10 μL/well of 5 μM ATP with 5 μCi/mL [γ^33P]ATP in assay buffer (final concentrations: 0.2 μg/mL p110α, 2 μM ATP, […] [γ^33P]ATP in 1× assay buffer: 100 mM Tris-HCl pH 7.0, 200 mM NaCl, 8 mM MgCl2). The reaction was incubated for 1 hour at RT and terminated with 30 μL/well of 50 mM EDTA solution. The plate was then washed twice with TBS, dried, and added with 30 μL/well of scintillant before it was counted in a MicroBeta Trilux.

Chain of mTOR (P42345 1382-2549 limits assumed): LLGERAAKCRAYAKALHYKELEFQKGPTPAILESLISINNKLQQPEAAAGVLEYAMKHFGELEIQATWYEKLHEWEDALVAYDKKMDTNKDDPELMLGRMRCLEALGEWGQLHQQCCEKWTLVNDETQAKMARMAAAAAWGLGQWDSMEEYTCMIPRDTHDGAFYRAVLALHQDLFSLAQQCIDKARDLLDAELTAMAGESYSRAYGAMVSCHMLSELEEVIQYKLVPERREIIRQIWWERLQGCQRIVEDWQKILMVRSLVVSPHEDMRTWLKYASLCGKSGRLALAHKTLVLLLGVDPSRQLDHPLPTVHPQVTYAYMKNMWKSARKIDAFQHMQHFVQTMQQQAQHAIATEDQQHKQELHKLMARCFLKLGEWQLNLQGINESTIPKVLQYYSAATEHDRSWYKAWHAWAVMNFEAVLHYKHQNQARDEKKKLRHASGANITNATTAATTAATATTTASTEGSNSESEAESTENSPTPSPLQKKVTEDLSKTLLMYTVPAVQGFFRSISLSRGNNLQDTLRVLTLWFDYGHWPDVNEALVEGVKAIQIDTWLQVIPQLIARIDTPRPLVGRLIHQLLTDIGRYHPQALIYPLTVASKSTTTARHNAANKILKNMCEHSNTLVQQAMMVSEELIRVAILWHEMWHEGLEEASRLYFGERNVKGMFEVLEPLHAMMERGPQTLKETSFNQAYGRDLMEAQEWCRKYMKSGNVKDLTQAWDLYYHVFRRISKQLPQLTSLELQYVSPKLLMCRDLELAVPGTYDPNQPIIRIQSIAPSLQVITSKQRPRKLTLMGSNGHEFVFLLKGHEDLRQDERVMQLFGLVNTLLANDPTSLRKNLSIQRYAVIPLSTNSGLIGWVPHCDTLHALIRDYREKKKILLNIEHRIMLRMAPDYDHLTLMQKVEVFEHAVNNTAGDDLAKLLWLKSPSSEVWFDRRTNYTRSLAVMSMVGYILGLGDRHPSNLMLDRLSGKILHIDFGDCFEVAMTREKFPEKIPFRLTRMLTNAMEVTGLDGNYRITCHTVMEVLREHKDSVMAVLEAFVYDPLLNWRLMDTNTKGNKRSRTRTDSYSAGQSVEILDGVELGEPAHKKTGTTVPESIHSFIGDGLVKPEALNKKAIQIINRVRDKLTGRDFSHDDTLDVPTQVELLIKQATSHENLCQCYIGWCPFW

O=C(Nc1ccc(Cl)cc1)N1CCC(n2cnc3c(-c4cccc5[nH]ccc45)nc(N4CCOCC4)nc32)CC1 [Compound 106]
IC50 [1]: < 1000 nM
IC50 [2]: < 1000 nM

COCCn1cnc2c(-c3ccc4cc[nH]c4c3)nc(N3CCOCC3)nc21 [Compound 10, 6-(1H-Indol-6-yl)-9-(2-methoxy-ethyl)-2-morpholin-4-yl-9H-purine]
IC50 [1]: 1000 to 5000 nM
IC50 [2]: > 5000 nM

CC(=O)Nc1cccc(Cn2cnc3c(-c4cccc(O)c4)nc(N4CCOCC4)nc32)c1 [Compound 49]
IC50 [1]: 1000 to 5000 nM
IC50 [2]: < 1000 nM

O=C(CCN1CCCCC1)Nc1ccc(Cn2cnc3c(-c4cccc(O)c4)nc(N4CCOCC4)nc32)cc1 [Compound 26, N-{4-[6-(3-Hydroxy-phenyl)-2-morpholin-4-yl-purin-9-ylmethyl]-phenyl}-3-piperidin-1-yl-propionamide]
IC50 [1]: 1000 to 5000 nM
IC50 [2]: < 1000 nM

Cc1ccc(C(=O)N2CCC(n3cnc4c(-c5cccc6[nH]ccc56)nc(N5CCOCC5)nc43)CC2)s1 [Compound 104]
IC50 [1]: < 1000 nM
IC50 [2]: < 1000 nM

CCC(C)n1c(C)nc2c(-c3cccc(O)c3)nc(N3CCOCC3)nc21 (stereo not shown) [Compound 113]
IC50 [1]: < 1000 nM
IC50 [2]: < 1000 nM

CCNc1ccc(Cn2cnc3c(-c4cccc(O)c4)nc(N4CCOCC4)nc32)cc1 [Compound 34]
IC50 [1]: 1000 to 5000 nM
IC50 [2]: < 1000 nM

Nc1ccc(Cn2cnc3c(-c4cccc(O)c4)nc(N4CCOCC4)nc32)cc1 [Compound 20, 3-[9-(4-Amino-benzyl)-2-morpholin-4-yl-9H-purin-6-yl]-phenol]
IC50 [1]: < 1000 nM
IC50 [2]: < 1000 nM

CCC(CC)n1cnc2c(-c3ccc(N)nc3)nc(N3CCOCC3)nc21 [Compound 138]
IC50 [1]: < 1000 nM
IC50 [2]: < 1000 nM

CC(C1CC1)n1cnc2c(-c3cccc(O)c3)nc(N3CCOCC3)nc21 (stereo not shown) [Compound 92]
IC50 [1]: < 1000 nM
IC50 [2]: < 1000 nM

CCC(C)n1c(SC)nc2c(-c3cccc(O)c3)nc(N3CCOCC3)nc21 (stereo not shown) [Compound 124, 3-(9-sec-Butyl-8-methylsulfanyl-2-morpholin-4-yl-9H-purin-6-yl)-phenol]
IC50 [1]: < 1000 nM
IC50 [2]: < 1000 nM

O=c1[nH]c2ccc(-c3nc(N4CCOCC4)nc4c3ncn4CC3CC3)cc2[nH]1 [Compound 65]
IC50 [1]: > 5000 nM
IC50 [2]: > 5000 nM

CS(=O)(=O)Nc1cccc(Cn2cnc3c(-c4cccc(O)c4)nc(N4CCOCC4)nc32)c1 [Compound 55]
IC50 [1]: > 5000 nM
IC50 [2]: 1000 to 5000 nM

COCC(C)n1cnc2c(-c3cccc4[nH]ccc34)nc(N3CCOCC3)nc21 (stereo not shown) [Compound 67]
IC50 [1]: < 1000 nM
IC50 [2]: < 1000 nM

CCCC(=O)N1CCC(n2cnc3c(-c4cccc5[nH]ccc45)nc(N4CCOCC4)nc32)CC1 [Compound 93]
IC50 [1]: < 1000 nM
IC50 [2]: < 1000 nM

O=C(Cn1cnc2c(-c3cccc(O)c3)nc(N3CCOCC3)nc21)NC1CC1 [Compound 84]
IC50 [1]: 1000 to 5000 nM
IC50 [2]: < 1000 nM

CC(C)Cn1cnc2c(-c3cccc(O)c3)nc(N3CCOCC3)nc21 [Compound 60]
IC50 [1]: < 1000 nM
IC50 [2]: < 1000 nM

CC(C)Cn1cnc2c(-c3cccc4[nH]ccc34)nc(N3CCOCC3)nc21 [Compound 66]
IC50 [1]: < 1000 nM
IC50 [2]: < 1000 nM

CCC(C)n1c(Br)nc2c(-c3cccc(O)c3)nc(N3CCOCC3)nc21 (stereo not shown) [Compound 114]
IC50 [1]: < 1000 nM
IC50 [2]: < 1000 nM

c1nc2cc(-c3nc(N4CCOCC4)nc4c3ncn4CC3CC3)ccc2[nH]1 [Compound 59]
IC50 [1]: 1000 to 5000 nM
IC50 [2]: < 1000 nM

c1ccc(Cn2cnc3c(-c4ccc5nc[nH]c5c4)nc(N4CCOCC4)nc32)cc1 [Compound 28]
IC50 [1]: 1000 to 5000 nM
IC50 [2]: 1000 to 5000 nM

COCC(C)n1cnc2c(-c3ccc(N)nc3)nc(N3CCOCC3)nc21 (stereo not shown) [Compound 134, 5-[9-(2-Methoxy-1-methyl-ethyl)-2-morpholin-4-yl-9H-purin-6-yl]-pyrirlin-2-ylamino]
IC50 [1]: < 1000 nM
IC50 [2]: < 1000 nM

Nc1cccc(Cn2cnc3c(-c4cccc(O)c4)nc(N4CCOCC4)nc32)c1 [Compound 41]
IC50 [1]: < 1000 nM
IC50 [2]: < 1000 nM
